Measured values reported in patent publication EP2975033A1, “Improved cysteine-protease inhibitors” (Universitat Jaume I, priority 2014, dated 2016).
Converted amounts (≈) assume the structure as drawn. Read-outs that look alike come from different tables or passages of the source.

Assays:
Cathepsin L (human) = biological target: T1, Cathepsin L (human) (Homo sapiens, UniProt P07711); test: Protease assay, fluorogenic substrate Z-Phe-Arg-AMC: Cathepsin L; type: biochemical
T1 construct: Cathepsin L (human liver) Calbiochem; purchased Calbiochem; host or cells: human liver (tissue-derived)
T1 sequence (P07711 114-333): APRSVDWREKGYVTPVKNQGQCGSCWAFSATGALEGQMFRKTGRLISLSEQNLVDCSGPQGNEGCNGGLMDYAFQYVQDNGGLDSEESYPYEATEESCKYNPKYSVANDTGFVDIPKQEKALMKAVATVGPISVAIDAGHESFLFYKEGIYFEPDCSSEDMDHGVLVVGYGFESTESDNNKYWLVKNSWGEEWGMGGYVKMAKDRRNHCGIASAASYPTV
Description: (§1) 2.1.1. Protease Assays as shown in tables 1 and 2: Cathepsin L (human), Cathepsin B (human), Rhodesain (Trypanosoma brucei rhodesiense), Falcipain 2 (Plasmodium falciparum)
(§2) Enzyme assays used to identify inhibitors of the target cysteine proteases. The effect is detected measuring fluorescence increase due to hydrolysis of fluorogenic substrates by the target enzymes in absence and presence of potential inhibitors.
(§3) • a. Proteins (enzymes): • Cathepsin L (human liver) Calbiochem • Cathepsin B (human liver) Calbiochem • Rhodesain: recombinantly expressed according to ref.: Caffrey, C. R.; Hansell, E.; Lucas, K. D.; Brinen, L. S.; Hernandez, A. A.; Cheng, J.; Gwaltney, S. L., II; Roush, W. R.; Stierhof, Y. D.; Bogyo, M.; Steverding, D.; McKerrow, J. H. Active site mapping, biochemical properties and subcellular localization of rhodesain, the major cysteine protease of Trypanosoma • Falcipain 2: recombinantly expressed according to ref.: Pandey, K. C.; Wang, S. X.; Sijwali, P. S.; Lau, A. L.; McKerrow, J. H.; Rosenthal, P. J. The Plasmodium falciparum cysteine protease falcipain-2 captures its substrate, hemoglobin, via a unique motif. Proc. Natl. Acad. Sci. U.S.A. 2005, 102, 9138-9143. • b. Buffers: • Cathepsin B: 50 mM Tris-Puffer pH 6.5 mit 2 mM DTT, 5 mM EDTA, 200 mM NaCl, 0.005% Brij35 • Cathepsin L: 50 mM Tris-Puffer pH 6.5 mit 2 mM DTT, 5 mM EDTA, 200 mM NaCl, 0.005% Brij35 • Rhodesain: 50 mM Acetat-Puffer pH 5.5 mit 5 mM DTT, 5 mM EDTA, 200 mM NaCl, 0.005% Brij35 • Falcipain 2: 50 mM Acetat-Puffer pH 5.5 mit 5 mM DTT, 5 mM EDTA, 200 mM NaCl, 0.005% Brij35 • c. Substrates: • Cathepsin L: 6,25 µM Z-Phe-Arg-7-amino-4-methylcumarin, HCl von Bachem, Ex 380 nm, Em 460 nm • Cathepsin B: 100 µM Z-Phe-Arg-7-amino-4-methylcumarin, HCl von Bachem, Ex 380 nm, Em 460 nm • Rhodesain: 10µM Z-Phe-Arg-7-amino-4-methylcumarin, HCl von Bachem, Ex 380 nm, Em 460 nm • Falcipain 2: 25µM Z-Phe-Arg-7-amino-4-methylcumarin, HCl von Bachem, Ex 380 nm, Em 460 nm • Reference substance(s)/positive control(s): E64 • d. Solvent for inhibitors and substrates: DMSO 99,5% (GC) DC4540, Sigma • e. Measurement device: Tecan Fluorescence spectrophotometer infinite F200 Pro • f. Well plates: 96 well plates, Lia-Plate White, Greiner bio-one, flat bottom, high binding • g. Methodology: Substrates and inhibitor stock solutions are prepared in DMSO and diluted with the respective assay buffer (final DMSO concentration: […]). Enzyme stock solutions are diluted with assay buffer to yield a fluorescence increase of dF/min ≈ _20. Total volume: 200 µL (180 µL of assay buffer, 5 µL of enzyme solution, 10 µL of DMSO or inhibitor solution, 5 µL of substrate solution). Assays are started by the addition of substrate solution. Fluorescence increase is detected over a period of 10 - 30 min, depending on time dependent (30 min) or non-time dependent (10 min) inhibition. • h. Temp: 25 °C • i. DATA-[…] • Software: Grafit 5.013 • Ki values are calculated from IC50 values (obtained by the 4-parameter IC50 equation) using the Chen-Prusoff equation: Ki=IC50/(1 + [S]/Km)
(§4) In vitro inhibition of cysteine-proteases cruzain (CR) (Trypanosoma cruzi (T. cruzi)), rhodesain (RD) (T. brucei), cathepsin B (CB), falcipain (FP2) (Plasmodium falciparum) and cathepsin L (CL) was assessed by quantification of the resulting fluorescence emission of the proteolytic breakdown of synthetic compound Z-Phe-Arg-AMC (Bachem). The results of this determination are shown in tables 1 and 2 illustrated above.

cruzain (CR) = cruzain (CR) (Trypanosoma cruzi, UniProt P25779); test: In vitro inhibition of cruzain, fluorescence of Z-Phe-Arg-AMC breakdown; type: biochemical
cruzain (CR), sequence (P25779 123-467): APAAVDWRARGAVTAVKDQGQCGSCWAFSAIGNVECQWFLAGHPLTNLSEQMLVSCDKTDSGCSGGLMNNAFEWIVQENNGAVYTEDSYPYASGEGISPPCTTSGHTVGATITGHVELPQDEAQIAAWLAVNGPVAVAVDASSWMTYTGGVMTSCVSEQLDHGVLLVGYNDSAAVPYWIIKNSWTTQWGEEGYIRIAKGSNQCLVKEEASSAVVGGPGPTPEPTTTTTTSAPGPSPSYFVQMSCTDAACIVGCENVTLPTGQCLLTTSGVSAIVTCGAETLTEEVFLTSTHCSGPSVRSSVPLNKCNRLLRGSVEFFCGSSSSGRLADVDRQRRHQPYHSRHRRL
Experimental: as §2, §4

Cathepsin B (human) = biological target: T2, Cathepsin B (human) (Homo sapiens, UniProt P07858); test: Protease assay, fluorogenic substrate Z-Phe-Arg-AMC: Cathepsin B; type: biochemical
T2 construct: Cathepsin B (human liver) Calbiochem; purchased Calbiochem; host or cells: human liver (tissue-derived)
Description: as §1, §2, §3, §4

Rhodesain = biological target: T3, Rhodesain (Trypanosoma brucei rhodesiense, UniProt Q95PM0); test: Protease assay, fluorogenic substrate Z-Phe-Arg-AMC: Rhodesain; type: biochemical; details: for IC50: RD=Rhodesain, 25 °C, pH 5.5, 10µM substrate
T3 construct: made in house
T3 sequence (Q95PM0 entry or part of it): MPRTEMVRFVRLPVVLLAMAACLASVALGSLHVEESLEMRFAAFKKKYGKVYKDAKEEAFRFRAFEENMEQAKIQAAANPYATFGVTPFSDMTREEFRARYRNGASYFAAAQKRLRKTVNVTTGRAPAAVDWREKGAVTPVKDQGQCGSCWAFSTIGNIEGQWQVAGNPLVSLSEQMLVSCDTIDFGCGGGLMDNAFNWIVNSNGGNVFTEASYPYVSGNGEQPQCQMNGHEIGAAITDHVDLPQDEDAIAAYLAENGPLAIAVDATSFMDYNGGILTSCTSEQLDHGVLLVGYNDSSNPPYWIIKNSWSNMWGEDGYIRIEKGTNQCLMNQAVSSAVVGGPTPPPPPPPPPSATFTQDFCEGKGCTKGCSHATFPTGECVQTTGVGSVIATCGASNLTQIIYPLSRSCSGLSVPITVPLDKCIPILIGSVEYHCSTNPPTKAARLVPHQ
Description: as §1, §2, §3, §4

Falcipain 2 = biological target: T4, Falcipain 2 (Plasmodium falciparum, UniProt Q8I6U4); test: Protease assay, fluorogenic substrate Z-Phe-Arg-AMC: Falcipain 2; type: biochemical; details: FP2=Falcipain2
T4 construct: made in house
T4 sequence (Q8I6U4 244-484): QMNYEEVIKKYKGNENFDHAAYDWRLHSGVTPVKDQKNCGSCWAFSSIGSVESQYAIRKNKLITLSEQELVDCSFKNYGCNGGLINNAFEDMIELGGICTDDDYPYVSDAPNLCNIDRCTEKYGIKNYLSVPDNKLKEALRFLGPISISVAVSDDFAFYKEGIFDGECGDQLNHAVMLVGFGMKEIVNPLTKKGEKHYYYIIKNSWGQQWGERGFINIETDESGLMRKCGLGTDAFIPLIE
Description: as §1, §2, §3, §4

[1] = test system: Trypanosoma brucei rhodesiense STIB900; test: Activity against Trypanosoma brucei rhodesiense STIB900 (Alamar Blue); type: cell-based; details: for IC50: Trypanosoma brucei
Experimental: (§5) For all the susceptibility assays with parasites and cells, each drug was tested in duplicate and each assay was repeated at least once. • a. Activity against Trypanosoma brucei rhodesiense STIB900. This stock was isolated in 1982 from a human patient in Tanzania and after several mouse passages cloned and adapted to axenic culture conditions (Baltz et al 1985) Minimum Essential Medium (50 µl) supplemented with 25 mM HEPES, 1g/l additional glucose, 1% MEM non-essential amino acids (100x), 0.2 mM 2-mercaptoethanol, 1 mM Na-pyruvate and 15% heat inactivated horse serum was added to each well of a 96-well microtiter plate. Serial drug dilutions of eleven 3-fold dilution steps covering a range from 100 to 0.002 µg/ml were prepared. Then 4x10^3 bloodstream forms of T. b. rhodesiense STIB 900 in 50 µl was added to each well and the plate incubated at 37 °C under a 5 % CO2 atmosphere for 70 h. 10 µl Alamar Blue (resazurin, 12.5 mg in 100 ml double-distilled water) was then added to each well and incubation continued for a further 2-4 h (Raz et al 1997). Then the plates were read with a Spectramax Gemini XS microplate fluorometer (Molecular Devices Cooperation, Sunnyvale, CA, USA) using an excitation wave length of 536 nm and an emission wave length of 588 nm. The IC50 values were calculated by linear regression (Huber 1993) from the sigmoidal dose inhibition curves using SoftmaxPro software (Molecular Devices Cooperation, Sunnyvale, CA, USA). Melarsoprol (Arsobal Sanofi-Aventis, received from WHO) is used as control. • b. Activity against T. cruzi. Rat skeletal myoblasts (L-6 cells) were seeded in 96-well microtitre plates at 2000 cells/well in 100 µL RPMI 1640 medium with 10% FBS and 2 mM I-glutamine. After 24 h the medium was removed and replaced by 100 µl per well containing 5000 trypomastigote forms of T. cruzi Tulahuen strain C2C4 containing the β-galactosidase (Lac Z) gene (Buckner et al. 1996). After 48 h the medium was removed from the wells and replaced by 100 µl fresh medium with or without a serial drug dilution of eleven 3-fold dilution steps covering a range from 100 to 0.002 µg/ml. After 96 h of incubation the plates were inspected under an inverted microscope to assure growth of the controls and sterility. Then the substrate CPRG/Nonidet (50 µl) was added to all wells. A color reaction developed within 2-6 h and could be read photometrically at 540 nm. Data were analyzed with the graphic programme Softmax Pro (Molecular Devices), which calculated IC50 values by linear regression (Huber 1993) from the sigmoidal dose inhibition curves. […] Activity against L. donovani axenic amastigotes. Amastigotes of L. donovani strain MHOM/ET/67/L82 were grown in axenic culture at 37 °C in SM medium (Cunnigham et al. 1977) at pH 5.4 supplemented with 10% heat-inactivated fetal bovine serum under an atmosphere of 5% CO2 in air. One hundred microlitres of culture medium with 10^5 amastigotes from axenic culture with or without a serial drug dilution were seeded in 96-well microtitre plates. Serial drug dilutions of eleven 3-fold dilution steps covering a range from 90 to 0.002 µg/ml were prepared. After 70 h of incubation the plates were inspected under an inverted microscope to assure growth of the controls and sterile conditions. 10 µl of Alamar Blue (12.5 mg resazurin dissolved in 100 ml distilled water) (Mikus and Steverdig. 2000) were then added to each well and the plates incubated for another 2 h. Then the plates were read with a Spectramax Gemini XS microplate fluorometer (Molecular Devices Cooperation, Sunnyvale, CA, USA) using an excitation wave length of 536 nm and an emission wave length of 588 nm. Data were analyzed using the software Softmax Pro (Molecular Devices Cooperation, Sunnyvale, CA, USA). Decrease of fluorescence (= inhibition) was expressed as percentage of the fluorescence of control cultures and plotted against the drug concentrations. From the sigmoidal inhibition curves the IC50 values were calculated. • d.

[2] = test system: T. cruzi Tulahuen strain C2C4; test: Activity against T. cruzi in L-6 cells (beta-galactosidase, CPRG); type: cell-based; details: for IC50: Trypanosoma cruzi, TULAHUEN
Experimental: as §5

[3] = test system: P. falciparum NF54 strain; test: Activity against P. falciparum, 3H-hypoxanthine incorporation assay; type: cell-based; details: for IC50: Plasmodium falciparum
[4] = read-out: CL(IC50); CL=CathepsinL; 25 °C, pH 6.5, 6,25 µM substrate
[5] = read-out: CBIC50micM; CB=CathepsinB; 25 °C, pH 6.5, 100 µM substrate
[6] = CL=CathepsinL; 25 °C, pH 6.5, 6,25 µM substrate; read-out: CL(IC50)
[7] = CB=CathepsinB; 25 °C, pH 6.5, 100 µM substrate; read-out: CBIC50micM

SMILES	CL(K2nd(M-1s-1)) (Cathepsin L (human); CL=CathepsinL)	CR(K2nd(M-1s-1)) (cruzain (CR))	IC50 (cruzain (CR))	CB(K2nd(M-1s-1)) (Cathepsin B (human); CB=CathepsinB)	RD(K2nd(M-1s-1)) (Rhodesain)	IC50 (Rhodesain)	FP2(K2nd(M-1s-1)) (Falcipain 2)	IC50 (Cathepsin L (human); [6])	other results
CC(C)C[C@H](NC(=O)[C@H](Cc1ccccc1)NC(=O)OCc1ccccc1)C(=O)/C=C/S(=O)(=O)c1ccccc1	383272 M⁻¹ s⁻¹	709411 M⁻¹ s⁻¹	11.1 nM	82248 M⁻¹ s⁻¹	1361750 M⁻¹ s⁻¹	6 nM	–	–	IC50 (Cathepsin L (human); [4]): 9.95 nM; IC50 (Cathepsin B (human); [5]): 50 nM
O=C(O)/C=C/[C@@H](O)[C@H](CCc1ccccc1)NC(=O)[C@H](Cc1ccccc1)NC(=O)OCc1ccccc1	882 M⁻¹ s⁻¹	–	–	–	–	–	29 M⁻¹ s⁻¹	20000 nM	–
Nc1nc(N)nc(Nc2ccc([As]3SCC(CO)S3)cc2)n1 (stereo not shown) [Melarsoprol, reference compound]	–	–	–	–	–	–	–	–	IC50 ([1]; 70 h, read-out: T.b.rhod. IC50 repl1, replicate 1, bloodstream forms, 70 h): 5 ng/mL; IC50 ([1]; 70 h, read-out: T.b.rhod. IC50 repl2, replicate 2, bloodstream forms, 70 h): 2 ng/mL; IC50 ([1]; read-out: T.b.rhod. IC50 mean, mean of replicates): 3 ng/mL; T.b.rhod. IC50 mean ([1]; mean of replicates): 0,004 micrograms/mL; T.b.rhod. IC50 repl1 ([1]; replicate 1, bloodstream forms, 70 h): 0,003 micrograms/mL; T.b.rhod. IC50 repl2 ([1]; replicate 2, bloodstream forms, 70 h): 0,004 micrograms/mL
CCOC(=O)/C=C/C(=O)[C@H](CC(C)C)NC(=O)[C@H](Cc1ccccc1)NC(=O)OCc1ccccc1	758621 M⁻¹ s⁻¹	516667 M⁻¹ s⁻¹	16.2 nM	138462 M⁻¹ s⁻¹	1611111 M⁻¹ s⁻¹	16.4 nM	–	–	IC50 (Cathepsin L (human); [4]): 9.6 nM; IC50 (Cathepsin B (human); [5]): 53 nM
O=C(Cn1ccnc1[N+](=O)[O-])NCc1ccccc1 [Benznidazole]	–	–	–	–	–	–	–	–	IC50 ([2]; L6, 96 h, replicate 1, L-6 cells, 96 h, read-out: T.cruzi. IC50 repl1): 657 ng/mL (≈ 2.52 µM); IC50 ([2]; L6, 96 h, replicate 2, L-6 cells, 96 h, read-out: T.cruzi. IC50 repl2): 522 ng/mL (≈ 2.01 µM); IC50 ([2]; L6, control value stated in the method text): 500 ± 200 ng/mL (≈ 1.92 µM); IC50 ([2]; L6, mean of replicates, read-out: T.cruzi. IC50 mean): 590 ng/mL (≈ 2.27 µM); T.cruzi. IC50 mean ([2]; mean of replicates): 0,516 micrograms/mL; T.cruzi. IC50 repl1 ([2]; replicate 1, L-6 cells, 96 h): 0,367 micrograms/mL; T.cruzi. IC50 repl2 ([2]; replicate 2, L-6 cells, 96 h): 0,664 micrograms/mL
CCOC(=O)C=CC(O)C(CCc1ccccc1)NC(=O)C(Cc1ccccc1)NC(=O)OCc1ccccc1 (single isomer, unassigned)	77 M⁻¹ s⁻¹	–	–	14 M⁻¹ s⁻¹	–	–	–	–	–
CCOC(=O)/C=C/[C@@H](O)[C@H](CCc1ccccc1)NC(=O)[C@H](Cc1ccccc1)NC(=O)N1CCOCC1	1860 M⁻¹ s⁻¹	3615 M⁻¹ s⁻¹	3750 nM	4190 M⁻¹ s⁻¹	36735 M⁻¹ s⁻¹	1130 nM	–	2450 nM	IC50 (Cathepsin B (human); [7]): 1130 nM
CCOC(=O)/C=C/C(=O)[C@H](CCc1ccccc1)NC(=O)[C@H](Cc1ccccc1)NC(=O)OCc1ccccc1 [drawing 38]	45364 M⁻¹ s⁻¹	–	–	45486 M⁻¹ s⁻¹	1274510 M⁻¹ s⁻¹	30.7 nM	17099 M⁻¹ s⁻¹	50 nM	IC50 (Cathepsin B (human); [7]): 70 nM
CCN(CC)CCCC(C)Nc1ccnc2cc(Cl)ccc12 (stereo not shown) [Chloroquine, reference compound]	–	–	–	–	–	–	–	–	IC50 ([3]; NF54, read-out: P.falc NF54 IC50 mean, mean of replicates): 3 ng/mL (≈ 0.00938 µM); IC50 ([3]; NF54, read-out: P.falc NF54 IC50 repl1, replicate 1, erythrocytic stages, NF54): 3 ng/mL (≈ 0.00938 µM); IC50 ([3]; NF54, read-out: P.falc NF54 IC50 repl2, replicate 2, erythrocytic stages, NF54): 2 ng/mL (≈ 0.00625 µM); P.falc NF54 IC50 repl1 ([3]; replicate 1, erythrocytic stages, NF54): 0,002 micrograms/mL
CCOC(=O)/C=C/[C@@H](O)[C@H](C)NC(=O)[C@H](Cc1ccccc1)NC(=O)OCc1ccccc1	828 M⁻¹ s⁻¹	–	–	–	10951 M⁻¹ s⁻¹	45100 nM	2,735 M-1s-1	14300 nM	–
